Patent US20220235049A1, “SUBSTITUTED PYRROLO [2, 3-b] PYRIDINE AND PYRAZOLO [3,4-b] PYRIDINE DERIVATIVES AS PROTEIN KINASE INHIBITORS” (Fochon Pharmaceuticals, Ltd., priority 2019, published 2022)

Tested on: DOHH2 cells
Test: Cell proliferation assay in DOHH2 cells (MTS)
Format: cell-based
In short: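 DOHH2 cells at 5000/well were treated with compound at 1.5–10000 nM for 120 h at 37 °C, as a proxy for BTK inhibition. Proliferation was read by MTS for 2 h, stopped with SDS, and absorbance measured at 490 nm with 650 nm reference; IC50 was fitted from the curve.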

Structure (SMILES) | IC50 (Homo sapiens, DOHH-2, 120 h) [nM] | IC50 (120 h) [nM]
COc1cnc2[nH]cc(C(=O)c3c(F)cc(Oc4ccccc4F)cc3F)c2c1N[C@@H]1CC[C@@H](CO)OC1 [Example 194, (2,6-difluoro-4-(2-fluorophenoxy)phenyl)(4-(((3R,6S)-6-(hydroxymethyl)tetrahydro-2H-pyran-3-yl)amino)-5-methoxy-1H-pyrrolo[2,3-b]pyridin-3-yl)methanone] | 26 | –
CCOc1cnc2[nH]cc(C(=O)c3ccc(Oc4ccccc4F)cc3C)c2c1N[C@@]12CO[C@H](CO)C1C2 (single isomer, unassigned) [Example 170] | – | 12
COc1cc(Oc2ccccc2F)ccc1C(=O)c1c[nH]c2ncc(OC)c(N[C@@H]3CC[C@@H](CO)OC3)c12 [Example 81, (4-(2-fluorophenoxy)-2-methoxyphenyl)(4-(((3R,6S)-6-(hydroxymethyl)tetrahydro-2H-pyran-3-yl)amino)-5-methoxy-1H-pyrrolo[2,3-b]pyridin-3-yl)methanone] | 19 | –
COc1cnc2[nH]cc(C(=O)c3ccc(Oc4ccccc4F)cc3)c2c1N[C@@H]1CC[C@@H](CO)OC1 [Example 73, (4-(2-fluorophenoxy)phenyl)(4-(((3R,6S)-6-(hydroxymethyl)tetrahydro-2H-pyran-3-yl)amino)-5-methoxy-1H-pyrrolo[2,3-b]pyridin-3-yl)methanone] | 1 | –
CCOc1cnc2[nH]cc(C(=O)c3ccc(Oc4ccccc4F)cc3C)c2c1N[C@@]12CO[C@H](CO)C1C2 (single isomer, unassigned) [Example 171] | – | 2
Cc1nc(Oc2ccccc2)ccc1C(=O)c1c[nH]c2nccc(N[C@@H]3CC[C@@H](CO)OC3)c12 [Example 41, (4-(((3R,6S)-6-(hydroxymethyl)tetrahydro-2H-pyran-3-yl)amino)-1H-pyrrolo[2,3-b]pyridin-3-yl)(2-methyl-6-phenoxypyridin-3-yl)methanone] | 53 | –
CCOc1cnc2[nH]cc(C(=O)c3ccc(Oc4ccccc4)cc3)c2c1N[C@@H]1CC[C@@H](CO)OC1 [Example 178, (5-ethoxy-4-(((3R,6S)-6-(hydroxymethyl)tetrahydro-2H-pyran-3-yl)amino)-1H-pyrrolo[2,3-b]pyridin-3-yl)(4-phenoxyphenyl)methanone] | 15 | –
COc1cnc2[nH]cc(C(=O)c3ccc(Oc4ccccc4F)cc3F)c2c1N[C@@]12CO[C@H](CO)C1C2 (single isomer, unassigned) [Example 168] | – | 8
COc1cc(Oc2ccccc2F)cnc1C(=O)c1c[nH]c2nccc(N[C@@H]3CC[C@@H](CO)OC3)c12 [Example 110, (5-(2-fluorophenoxy)-3-methoxypyridin-2-yl)(4-(((3R,6S)-6-(hydroxymethyl)tetrahydro-2H-pyran-3-yl)amino)-1H-pyrrolo[2,3-b]pyridin-3-yl)methanone] | 95 | –
COc1cnc2[nH]cc(C(=O)c3ccc(Oc4ccccc4F)cc3F)c2c1N[C@@H]1CCC(CO)(CO)OC1 [Example 164, (R)-(4-((6,6-bis(hydroxymethyl)tetrahydro-2H-pyran-3-yl)amino)-5-methoxy-1H-pyrrolo[2,3-b]pyridin-3-yl)(2-fluoro-4-(2-fluorophenoxy)phenyl)methanone] | 22 | –
Cc1cc(Oc2ccccc2F)ccc1C(=O)c1c[nH]c2ncc(C#N)c(N[C@@H]3CC[C@@H](CO)OC3)c12 [Example 48, 3-(4-(2-fluorophenoxy)-2-methylbenzoyl)-4-(((3R,6S)-6-(hydroxymethyl)tetrahydro-2H-pyran-3-yl)amino)-1H-pyrrolo[2,3-b]pyridine-5-carbonitrile] | 1 | –
COc1cnc2[nH]cc(C(=O)c3ccc(Oc4c(F)cccc4F)cc3Cl)c2c1N[C@@H]1CC[C@@H](CO)OC1 [Example 186, (2-chloro-4-(2,6-difluorophenoxy)phenyl)(4-(((3R,6S)-6-(hydroxymethyl)tetrahydro-2H-pyran-3-yl)amino)-5-methoxy-1H-pyrrolo[2,3-b]pyridin-3-yl)methanone] | 17 | –
COc1cnc2[nH]cc(C(=O)c3ccc(Oc4ccccc4F)cc3F)c2c1N[C@@]12CO[C@H](CO)C1C2 (single isomer, unassigned) [Example 169] | – | 65
